For this assay, the system named is HTT-ΔN17-46Q-GFP. The assay is described as follows: cell-based HTT seeding assay (ΔN17-1E cells). On the set-up: species or system human. The note with it: for induction of intracellular HTT-ΔN17-46Q-GFP aggregation by extracellularly applied seeds: ΔN17-1E (HEK293) cells, substance applied as seed, FIG. 4. From the text: Described herein is the development of a cell-based HTT seeding assay. A DNA construct encoding Exon1 of mutant human HTT with a 46 polyQ repeat was designed (FIG. 1C). This mutant HTT was engineered to delete amino acid residues 2-16 and was fused with a green fluorescent protein (GFP) at its C-terminus, named HTT-ΔN17-46Q-GFP hereafter. The HTT-ΔN17-46Q-GFP was then cloned into a pcDNA3 vector and transfected into HEK293 cells. Clones of stably transfected cells expressing HTT-ΔN17-46Q-GFP were selected to generate individual cell lines. Expression of the transgene in the cell lines was characterized to confirm its morphology, expression level and subcellular localization. Line 1E, named ΔN17-1E cells, was selected based on it moderate transgene expression with minimal protein aggregates at the baseline. Based on this cell line, a cell-based HTT seeding assay was developed. Extracellular application of preformed HTT aggregates or biosamples from HD patients as “seeds”, to ΔN17-1E cells could induce intracellular aggregation of HTT-ΔN17-46Q-GFP proteins (FIG. 1 through FIG. 3). This seeding-induced aggregation event is similar to in vitro HTT aggregation, which preformed aggregates, or seeds, nucleates and facilitates the aggregation of HTT exon 1 monomers. Moreover, this activity is specific to utilizing aggregates of polyQ proteins since neither aggregates of β-amyloid and Tau nor biosamples from AD and PD patients could elicit HTT-ΔN17-46Q-GFP aggregation (FIG. 4). The level of induced aggregates positively correlates with the amount of recombinant seeds added. Importantly, the seedability of the biosamples also correlates with the disease stage of the patients. Currently, the assay has been optimized to be performed in a high-throughput format, making it more capable with large quantity of samples. Thus, this cell-based seeding assay could be extremely useful for detecting seedible species in the biosamples, which is shown by us to increase as the disease progressing, and thus could be used as a biomarker for HD diagnosis and clinical trials, as well as for drug discovery.

From US20200255487A1, “A Cell-Based Seeding Assay for Huntingtin Aggregation” (THE REGENTS OF THE UNIVERSITY OF CALIFORNIA, priority 2017, published 2020) come the findings set out here.

As for “phosphorylated tau: phosphorylated tau used as non-HTT seed control [reference compound]”, the “induction of intracellular HTT-ΔN17-46Q-GFP aggregation by extracellularly applied seeds” value is given as “did not elicit the aggregation”.

“fibrillar Aβ: fibrillar Aβ used as non-HTT seed control [reference compound]”: the “induction of intracellular HTT-ΔN17-46Q-GFP aggregation by extracellularly applied seeds” value was “did not elicit the aggregation”.

Regarding “DNAJB6: DNAJB6 of the Hsp40 family, overexpressed in ΔN17 cells by transit transfection”, the “HTT-ΔN17-46Q-GFP aggregation induced by HD CSF, with overexpression” value (ΔN17 cells, overexpression by transit transfection, induced by HD CSF, FIG. 10) is on record as “dramatically reduced”. The “HTT-ΔN17-46Q-GFP aggregation induced by preformed mHTT-exon1 seeds, with overexpression” value (ΔN17 cells, overexpression by transit transfection, induced by preformed mHTT-exon1 seeds, FIG. 10) is reported as “dramatically reduced”.
